Consider 1 compound from patent publication US11696903B2, “Compounds and methods for scavenging dicarbonyl electrophiles” (VANDERBILT UNIVERSITY, priority 2019, dated 2023).

The subject of data set [1] is C57BL/6 mice in the AOM-DSS model. Kind of data set: AOM-DSS model of colitis-associated carcinoma (tumors, dysplasia, body weight). It counts as in vivo. The procedure:
FIGS. 5A, 5B, 5C, 5D, 5E, 5F, and 5G show mice (n=10-12/group)±AOM-DSS±1.5 mg/ml EtHOBA. (A) Body weight; ″P<0.05 compared to AOM-DSS-treated mice. (B) Tumor number. (C) Average tumor size per mouse. (D) Tumor burden. (E) Number of adenomas. (F) Frequency of diagnoses; ND, no dysplasia. (G) H&E staining; each arrow depicts a tumor. Scale bar, 50 μm.
Animals receive an i.p. injection of the carcinogen AOM (12.5 mg/kg) followed by 3 cycles of 4% DSS, each for 4 days, over a total of 56-77 days. To directly determine the role of electrophiles in colon carcinogenesis, the present inventors tested the effect of EtHOBA in C57BL/6 mice in the AOM-DSS model. Mice were given 1.5 mg/ml EtHOBA one day after AOM and continued throughout the experiments, except during the DSS cycles, to avoid mixing. The present inventors assessed electrophiles in colons of mice treated with AOM-DSS, by IHC for electrophile protein adducts. […] In total, without the scavenger treatment, 25% of mice had HGD and the remaining 75% had L GD; in contrast, in those receiving EtHOBA, 20% had no dysplasia, none had HGD, and 80% had only L GD, a significant overall difference in diagnoses (FIGS. 5F-G).

A short description of data set [2]: EtSA in gastric tissues (LC/ESI/MS/MS). In kind it is in vivo, INS-GAS mice. To be noted: EtSA in drinking water. The procedure: FIGS. 16A, 16B, 16C, 16D, 16E, and 16F show INS-GAS mice (8 per group) were infected or not with H. pylori strain PMS for 8 weeks and then treated with EtSA (7.5 mg/ml) one week after infection. (A) EtSA concentration in gastric tissues; **P<0.01, ****P<0.0001 vs. mice without EtSA. (B) Frequency of diagnoses. IMC, intramucosal carcinoma; LGD, low grade dysplasia; ND, no dysplasia. (C) Quantification of extent of dysplasia and cancer as a percentage of tissue sections. (D) H&E staining of INS-GAS mouse stomach tissues, showing carcinoma in an infected mouse; scale bar, 50 μm. In B and C, *P<0.05, **P<0.01 vs. infected mice.
As discussed further in the Examples, the human gastric epithelial cell line AGS was infected with Hp PMSS1±10 mM EtSA. FVB/N insulin-gastrin (INS-GAS) mice and Mongolian gerbils were infected for 8 wk with Hp PMSS1 and 7.13, respectively; EtSA (0.75% in water) was given to animals beginning one wk post-infection. Lys-LG adducts, a marker of electrophile reactions, and EtSA were quantified by LC/EST/MS/MS. Histology was analyzed on H&E staining. DNA damage was evaluated by pH2AX staining. Hp colonization was quantified by culture. Mucosal immune responses were determined by RNA profiling and by Luminex assay. Mice were imaged using PET/CT with ^18F-FDG (inflammation marker) and ^18F—NaF (tumor marker). […]

The next data set deals with LG-protein adducts. The data set can be described thus: IHC for LG-protein adducts in colons of AOM-DSS mice. The conditions noted are these: 1.5 mg/ml EtHOBA. In kind it is in vivo, C57BL/6 mice. From the text: The present inventors performed immunohistochemistry (IHC) staining using the single chain antibody (Ab) D11, which specifically binds to L G-protein adducts, and a tissue microarray (TMA) from VUMC that contains colon tissues from patients with ulcerative colitis (UC), and associated precancerous and cancerous lesions. Histopathologic diagnoses were established from clinical case material from surgical resections and confirmed by H&E staining of the TMA. High levels of L G-protein adducts were present in active colitis, dysplasia, and carcinoma compared to normal patients (FIG. 2). On the TMA, 7/9 (78%) high grade dysplasia (HGD) cores and 21/23 (91%) CAC cores were scored positive for L G adducts.
Animals receive an i.p. injection of the carcinogen AOM (12.5 mg/kg) followed by 3 cycles of 4% DSS, each for 4 days, over a total of 56-77 days. To directly determine the role of electrophiles in colon carcinogenesis, the present inventors tested the effect of EtHOBA in C57BL/6 mice in the AOM-DSS model. Mice were given 1.5 mg/ml EtHOBA one day after AOM and continued throughout the experiments, except during the DSS cycles, to avoid mixing. The present inventors assessed electrophiles in colons of mice treated with AOM-DSS, by IHC for electrophile protein adducts. […]

Another data set concerns colonic immune response. Kind of data set: Colonic immune response in AOM-DSS mice (infiltration score, gene expression, IF). It counts as in vivo, C57BL/6 mice. From the text:
The present inventors used the tissues generated for FIG. 5 to study immune cell responses in AOM-DSS-treated mice±EtHOBA.
Using the tissues from the same mice as in FIG. 5, the present inventors analyzed the expression of key genes encoding mediators of the innate and adaptive immune response. […] Importantly, the overall pattern was that the genes encoding antitumoral effectors were expressed at a higher level in mice that were given compounds of the present invention. […] In contrast, the gene encoding the immunosuppressive myeloid mediator AR G1 was not affected by EtHOBA (FIG. 9). Using IF, we confirmed that mice treated with AOM-DSS mice that were given EtHOBA had increased CD68^+NOS2^+ (M1 macrophages) in colon tumors (FIG. 10).

[3] abbreviates: AOM-DSS, 1.5 mg/ml EtHOBA vs AOM-DSS alone.

In the case of `CCc1ccc(O)c(CN)c1` [EtHOBA, 5-ethyl-2-hydroxybenzylamine], the “mice with high grade dysplasia (HGD)” value in data set [1] (AOM-DSS + EtHOBA, without scavenger 25%) was “none”. Further, the “mice with only low-grade dysplasia (LGD)” value in data set [1] (AOM-DSS + EtHOBA, without scavenger 75%) is recorded as 80%. For the same compound, the “mice with no dysplasia” value in data set [1] (AOM-DSS + EtHOBA, without scavenger all mice had dysplasia) is 20%. Further, in data set [1] (setting [3]), the Tumor number result was “significantly less tumors”, the “body weight loss at each cycle of DSS” value was “less weight loss”, the “number of histologic adenomas” value is listed as “reduced number” and the total tumor burden result was “lower”. Further, the tumor size result in data set [1] (setting [3]) was “lower tumor size”. For the same compound, in data set [1] (control mice treated for 56 days, 1.5 mg/ml EtHOBA), the “body weight in control mice” value is reported as “no change in body weight”. Further, the “EtSA bioavailability in the stomach” value in data set [2] was “bioavailable in the stomach”. The “LG-protein adducts (IHC staining)” value with LG-protein adducts is “marked attenuation”. For the same compound, in the data set with colonic immune response (AOM-DSS mice, EtHOBA vs untreated), the immune cell infiltration entry is “more influx of immune cells”. Moreover, the “Arg1 (ARG1) expression” value with colonic immune response (AOM-DSS ± EtHOBA) is “not affected”. Moreover, in the data set with colonic immune response (IF, AOM-DSS mice), the “CD68+NOS2+ (M1 macrophages) in colon tumors” value is “increased”. Also, the “histology in control mice” value with colonic immune response (control mice given EtHOBA) was “no effect on histology”. In the data set on colonic immune response (non-tumor and tumor tissue, AOM-DSS ± EtHOBA), the Il12a expression result is “reached statistical significance for an increase”. For the same compound, the Il17 expression entry in the data set on colonic immune response (non-tumor tissue, AOM-DSS ± EtHOBA) is “reached statistical significance for an increase”. Moreover, in the data set with colonic immune response (tumor tissue, AOM-DSS ± EtHOBA), the Il12b expression entry is recorded as “reached statistical significance for an increase”, the Nos2 expression entry was “reached statistical significance for an increase” and the Tnfa expression result is recorded as “reached statistical significance for an increase”.
